# Patent publication US20130210852A1, “METHODS FOR TREATING INFECTION” (priority 2010, published 2013)
# Read-outs that look alike come from different tables or passages of the source.
# Tests used:
# [1] = system: EAEC strain O42 adherence to HCT-8 cells; type: cell-based, human; conditions: 24 h pretreatment with 64 mg (FIG. 2: 64 μg/ml), EAEC 3 h
# S. sonnei on HeLa cells = assay: S. sonnei adherence and internalization in HeLa cells; type: cell-based, human; conditions: HeLa cells pretreated 24 h
# [2] = system: enteroaggregative E coli strains; assay: MIC against rifaximin by agar dilution, EAEC isolates; type: cell-based; conditions: Escherichia coli; 2 EAEC isolates
# Description: Five enterotoxigenic E coli strains, 2 enteroaggregative E coli strains, and 1 S sonnei isolate were included in the study. The isolates had been identified previously from patients with TD acquired in Guadalajara, Mexico, during the summer of 2004 (5). […] The susceptibility of all isolates to rifaximin was determined by agar dilution methodology following the recommendations of the Clinical and Laboratory Standards Institute.
# S sonnei isolate = assay: Isolate viability after rifaximin exposure, S sonnei; type: cell-based, Shigella sonnei
# [3] = system: ETEC isolates (ST, LT, CS2/CS3, CS6); type: cell-based, Escherichia coli; as to Expression of virulence factor CS2/CS3 in ETEC isolates: key: + = present; − = not present; NV, not viable; as to Expression of virulence factor CS6 in ETEC isolates: key: + = present; − = not present; NV, not viable; as to Expression of virulence factor LT in ETEC isolates: key: + = present; − = not present; NV, not viable; as to Expression of virulence factor ST in ETEC isolates: key: + = present; − = not present; NV, not viable
# [4] = system: MMP-9 in S sonnei isolate; assay: Matrix metalloproteinase-9 detection by gelatin zymography, S sonnei; type: cell-based, Shigella sonnei
# Description: Matrix Metalloproteinase-9 Detection Expression of matrix metalloproteinase-9 (MMP-9) was analyzed using gelatin zymography in all viable EAEC and S. sonnei isolates growing on MacConkey agar. Isolates were suspended in 1 mL of 0.1 M phosphate buffered saline (pH 7.2) and centrifuged at 1000 g for 10 minutes at 4° C. The supernatant was subjected to gelatin zymography to detect MMP-9 activity using a modified Heussen and Dowdle protocol (9). In summary, the supernatant was diluted 1:2 in a sample buffer (125 mM Tris-HCl, pH 6.8, 20% glycerol, 4% sodium dodecyl sulfate, 0.02% bromphenol blue), and 20 μL was loaded on to a 10% SDS-PAGE gel containing 1 mg/mL gelatin. Prestained standard proteins were used as molecular weight markers. After electrophoresis, gels were rinsed with incubation buffer (2.5% triton X-100, 50 mM Tris-HCl, pH 7.4, 0.02% Brij 35, 10 mM CaCl2, 2 μM ZnCl2) for 1 hour at room temperature to remove SDS. Gels were then incubated overnight at 37° C. and subsequently stained with Coomassie brilliant blue R-250 (Thermo Fisher Scientific, Inc, Rockford, Ill.). […] Matrix metalloproteinase-9 was identified among all gelatinolytic proteins by size.
# [5] = system: HCT-8 cells infected with rifaximin-exposed EAEC strains; assay: HCT-8 cell culture assay for interleukin-8 (IL-8) release; type: cell-based, human
# Description: The human intestinal adenocarcinoma cell line, HCT-8, was used to study inflammatory modulators as previously published (Huang, 2004 #15). Monolayers of HCT-8 cells (ATCC CCL-244; American Type Culture Collection, Rockville, Md.) were grown in 24-well culture plates (Corning Costar, Corning, N.Y.) in an RPMI 1640 medium (Sigma-Aldrich Co, St Louis, Mo.) supplemented with 100 U/mL of penicillin, 100 μg/mL of streptomycin, and 0.25 μg/mL of amphotericin B. They were maintained in a medium supplemented with 10% fetal bovine serum (HyClone, Logan, Utah) and grown until approximately 4×10^5 cells/well confluence.
# HCT-8 cells were infected with EAEC strains recovered from MacConkey agar in triplicate at a 100:1 ratio in an antibiotic- and serum-free RPMI 1640 medium. Cells were incubated for 3 hours in a humidified chamber at 37° C. in an atmosphere containing 5% CO2, after which supernatants were collected. The supernatant concentration of IL-8 in each well was determined by using a commercially available enzyme-linked immunosorbent assay kit for human IL-8 (R&D Systems, Minneapolis, Minn.). All samples were tested twice, and the average value was reported.
# C difficile [6] = conditions: cited from earlier work
# ETEC strains = assay: Isolate viability after rifaximin exposure, ETEC
# C difficile [7] = assay: Susceptibility testing of C difficile isolates (rifaximin agar dilution, rifampin E strips)
# [8] = rifaximin 8 mg/L, exposure 4 hrs
# [9] = rifaximin 8 mg/L, exposure 8 hrs
# [10] = rifaximin 8 mg/L, exposure 18 hrs
# [11] = rifaximin 8 mg/L, exposure 24 hrs
# [12] = rifaximin 32 mg/L, exposure 4 hrs
# [13] = rifaximin 32 mg/L, exposure 8 hrs
# [14] = rifaximin 32 mg/L, exposure 18 hrs
# [15] = rifaximin 64 mg/L, exposure 4 hrs
# [16] = rifaximin 64 mg/L, exposure 8 hrs
smiles,measurement,setting,value
"CO[C@H]1/C=C/O[C@@]2(C)Oc3c(C)c(O)c4c(O)c(c5c(nc6cc(C)ccn65)c4c3C2=O)NC(=O)/C(C)=C\C=C\[C@H](C)[C@H](O)[C@@H](C)[C@@H](O)[C@@H](C)[C@H](OC(C)=O)[C@@H]1C [Rifaximin, (2S,16Z,18E,20S,21S,22R,23R,24R,25S,26S,27S,28E)-5,6,21,23,25 Pentahydroxy-27-methoxy-2,4,11,16,20,22,24,26-octamethyl-2,7-(epoxypentadeca-(1,11,13)trienimino)benzofuro (4,5-e) pyrido(1,2,-a) benzimidazole-1,15(2H)-dione,25-acetate]",EAEC adherence to HCT-8 cells,[1],"Slightly fewer bacteria adhered to rifaximin-pretreated HCT-8 cells, but this difference was not significant"
same,S. sonnei attachment,S. sonnei on HeLa cells,no effect
same,S. sonnei internalization,S. sonnei on HeLa cells; gentamicin protection,no effect
same,MIC,[2],64 µg/mL
same,S sonnei viability after exposure,"S sonnei isolate; rifaximin 8 mg/L for 4, 8, 18, and 24 hours",viable
same,S sonnei viability after exposure,S sonnei isolate; rifaximin 32 or 64 mg/L at any time point,not viable
same,"Expression of all examined virulence factors (ST, LT, CS2/CS3, CS6) by viable ETEC isolates","[3]; 4- and 8-hour exposure to rifaximin 8, 32, and 64 mg/L",expressed all examined virulence factors
same,"Expression of all examined virulence factors (ST, LT, CS2/CS3, CS6) by viable ETEC isolates","[3]; 18-hour time point, rifaximin 8 mg/L",all virulence factors were expressed
same,"Expression of all examined virulence factors (ST, LT, CS2/CS3, CS6) by viable ETEC isolates","[3]; 18-hour time point, rifaximin 32 mg/L",no factors were seen
same,"Expression of all examined virulence factors (ST, LT, CS2/CS3, CS6) by viable ETEC isolates",[3]; 24-hour exposure to rifaximin 8 mg/L,did not express any virulence factors
same,Expression of virulence factor CS2/CS3 in ETEC isolates,[3]; [8],+
same,Expression of virulence factor CS6 in ETEC isolates,[3]; [8],+
same,Expression of virulence factor LT in ETEC isolates,[3]; [8],+
same,Expression of virulence factor ST in ETEC isolates,[3]; [8],+
same,Expression of virulence factor ST/LT in ETEC isolates,[3]; [8],+
same,Expression of virulence factor CS2/CS3 in ETEC isolates,[3]; [9],+
same,Expression of virulence factor CS6 in ETEC isolates,[3]; [9],+
same,Expression of virulence factor LT in ETEC isolates,[3]; [9],+
same,Expression of virulence factor ST in ETEC isolates,[3]; [9],+
same,Expression of virulence factor ST/LT in ETEC isolates,[3]; [9],+
same,Expression of virulence factor CS2/CS3 in ETEC isolates,[3]; [10],+
same,Expression of virulence factor CS6 in ETEC isolates,[3]; [10],+
same,Expression of virulence factor LT in ETEC isolates,[3]; [10],+
same,Expression of virulence factor ST in ETEC isolates,[3]; [10],+
same,Expression of virulence factor ST/LT in ETEC isolates,[3]; [10],+
same,Expression of virulence factor CS2/CS3 in ETEC isolates,[3]; [11],−
same,Expression of virulence factor CS6 in ETEC isolates,[3]; [11],−
same,Expression of virulence factor LT in ETEC isolates,[3]; [11],−
same,Expression of virulence factor ST in ETEC isolates,[3]; [11],−
same,Expression of virulence factor ST/LT in ETEC isolates,[3]; [11],−
same,Expression of virulence factor CS2/CS3 in ETEC isolates,[3]; [12],+
same,Expression of virulence factor CS6 in ETEC isolates,[3]; [12],+
same,Expression of virulence factor LT in ETEC isolates,[3]; [12],+
same,Expression of virulence factor ST in ETEC isolates,[3]; [12],+
same,Expression of virulence factor ST/LT in ETEC isolates,[3]; [12],+
same,Expression of virulence factor CS2/CS3 in ETEC isolates,[3]; [13],+
same,Expression of virulence factor CS6 in ETEC isolates,[3]; [13],+
same,Expression of virulence factor LT in ETEC isolates,[3]; [13],+
same,Expression of virulence factor ST in ETEC isolates,[3]; [13],+
same,Expression of virulence factor ST/LT in ETEC isolates,[3]; [13],+
same,Expression of virulence factor CS2/CS3 in ETEC isolates,[3]; [14],−
same,Expression of virulence factor CS6 in ETEC isolates,[3]; [14],−
same,Expression of virulence factor LT in ETEC isolates,[3]; [14],−
same,Expression of virulence factor ST in ETEC isolates,[3]; [14],−
same,Expression of virulence factor ST/LT in ETEC isolates,[3]; [14],−
same,Expression of virulence factor CS2/CS3 in ETEC isolates,[3]; [15],+
same,Expression of virulence factor CS6 in ETEC isolates,[3]; [15],+
same,Expression of virulence factor LT in ETEC isolates,[3]; [15],+
same,Expression of virulence factor ST in ETEC isolates,[3]; [15],+
same,Expression of virulence factor ST/LT in ETEC isolates,[3]; [15],+
same,Expression of virulence factor CS2/CS3 in ETEC isolates,[3]; [16],+
same,Expression of virulence factor CS6 in ETEC isolates,[3]; [16],+
same,Expression of virulence factor LT in ETEC isolates,[3]; [16],+
same,Expression of virulence factor ST in ETEC isolates,[3]; [16],+
same,Expression of virulence factor ST/LT in ETEC isolates,[3]; [16],+
same,MMP-9 in the S sonnei isolate,[4]; other time points and rifaximin concentrations,either undetectable or the isolate was not viable
same,MMP-9 in the S sonnei isolate,[4]; rifaximin 8 mg/L for 4 hours,detectable
same,IL-8 production from HCT-8 cells infected with rifaximin-exposed EAEC,[5]; EAEC exposed to rifaximin 64 mg/L for 4 hours,caused IL-8 production
same,IL-8 production from HCT-8 cells infected with rifaximin-exposed EAEC,[5]; EAEC exposed to rifaximin 8 or 32 mg/L for 4 or 8 hours,elicited production of IL-8
same,IL-8 production from HCT-8 cells infected with rifaximin-exposed EAEC,[5]; all other time points and rifaximin concentrations,"Interleukin-8 was either undetected following HCT-8 infection with EAEC strains, or EAEC strains were not viable"
same,IL-8 production from HCT-8 cells infected with rifaximin-exposed EAEC,"[5]; viable EAEC exposed to rifaximin 8, 32, or 64 mg/L for 18 hours or 8 mg/L for 24 hours",did not elicit IL-8 production
same,"isolates resistant to rifaximin, based on MIC values",C difficile [6]; 110 C difficile isolates,2.7%
same,MIC50 against C difficile,"C difficile [6]; 110 isolates, 1983 to 2004",0.0075 µg/mL
same,MIC90 against C difficile,"C difficile [6]; 110 isolates, 1983 to 2004",0.015 µg/mL
same,ETEC viability after exposure,"ETEC strains; rifaximin 8 mg/L, 24-hour exposure",viable
same,ETEC viability after exposure,ETEC strains; rifaximin 64 mg/L for 18 hours or 32 and 64 mg/L for 24 hours,No ETEC isolates were viable
same,ETEC viability after exposure,"ETEC strains; rifaximin 8, 32, and 64 mg/L for 4 and 8 hours, 8 and 32 mg/L for 18 hours",viable
same,MIC50 against C difficile,C difficile [7]; 359 isolates,<0.01 µg/mL
same,MIC90 against C difficile,C difficile [7]; 359 isolates,0.25 µg/mL
same,MIC50 against C difficile,"C difficile [7]; 359 isolates, listed as rifaximin",< 0.01 µg/mL
same,"Isolates resistant to rifaximin alone (n = 11), (%)","C difficile [7]; genotype A +, B +, BT +, tcdC-del +",(0) %
same,"Isolates resistant to rifaximin alone (n = 11), (%)","C difficile [7]; genotype A +, B +, BT +, tcdC-del −",(18) %
same,"Isolates resistant to rifaximin alone (n = 11), (%)","C difficile [7]; genotype A +, B +, BT −, tcdC-del +",(9) %
same,"Isolates resistant to rifaximin alone (n = 11), (%)","C difficile [7]; genotype A +, B +, BT −, tcdC-del −",(55) %
same,"Isolates resistant to rifaximin alone (n = 11), (%)","C difficile [7]; genotype A −, B −, BT −, tcdC-del −",(18) %
